Patent US10195185B2, “3-(1H-imidazo[4,5-C]pyridin-2-yl)-1H-pyrazolo[4,3-B]pyridines and therapeutic uses thereof” (Samumed, LLC, priority 2015, dated 2019)

Test system: IL-6 in human monocyte cell line (THP-1 cells)
Test: IL-6 inhibition in LPS-stimulated THP-1 cells (HTRF)
Assay type: cell-based
Conditions: IL-6 in LPS-stimulated THP-1 cells; for EC50: HTRF; for inhibition at 10 µM: read-out: percent inhibition in brackets beside EC50 >10 μM
Method in brief: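 Readout is the 665/620 nm HTRF ratio for secreted IL-6, normalized to DMSO wells, with EC50 from a variable-slope four-parameter fit, or % inhibition at 10 μM when above 10 μM. Cells (1% FBS, 24 h beforehand) got compound for 2 h, then LPS 500 ng/mL for 22 h at 37° C; top dose 10 μM, 0.1% DMSO.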

Structure (SMILES)	EC50	inhibition at 10 µM
Cn1cc(-c2ccc3[nH]nc(-c4nc5c(-c6cccs6)nccc5[nH]4)c3n2)cn1 [Compound 700, 5-(1-Methyl-1H-pyrazol-4-yl)-3-(4-(thiophen-2-yl)-1H-imidazo[4,5-c]pyridin-2-yl)-1H-pyrazolo[4,3-b]pyridine]	> 10 µM	0%
COc1cccc(-c2nccc3[nH]c(-c4n[nH]c5ccc(-c6cncc(NC(=O)CC(C)(C)C)c6)nc45)nc23)c1 [Compound 1006, N-(5-(3-(4-(3-methoxyphenyl)-1H-imidazo[4,5-c]pyridin-2-yl)-1H-pyrazolo [4,3-b]pyridin-5-yl)pyridin-3-yl)-3,3-dimethylbutanamide]	> 10 µM	32.3%
CN(C)CCNc1cc(F)cc(-c2nccc3[nH]c(-c4n[nH]c5ccc(-c6cncc(OCCN7CCCC7)c6)nc45)nc23)c1 [Compound 786, N^1-(3-Fluoro-5-(2-(5-(5-(2-(pyrrolidin-1-yl)ethoxy)pyridin-3-yl)-1H-pyrazolo[4,3-b]pyridin-3-yl)-1H-imidazo[4,5-c]pyridin-4-yl)-5phenyl)-N^2,N^2-dimethylethane-1,2-diamine]	7.22 µM	–
CS(=O)(=O)NCc1cc(F)cc(-c2nccc3[nH]c(-c4n[nH]c5ccc(-c6cncc(NC(=O)CC7CCNCC7)c6)nc45)nc23)c1 [Compound 769, N-(5-(3-(4-(3-Fluoro-5-(methylsulfonamidomethyl)phenyl)-1H-imidazo[4,5-c]pyridin-2-yl)-1H-pyrazolo[4,3-b]pyridin-5-yl)pyridin-3-yl)-2-(piperidin-4-yl)acetamide]	> 10 µM	33.4%
c1cc(-c2ccc3[nH]nc(-c4nc5c(-c6ccncc6)nccc5[nH]4)c3n2)ccn1 [Compound 130, 5-(pyridin-4-yl)-3-(4-(pyridin-4-yl)-1H-imidazo[4,5-c]pyridin-2-yl)-1H-pyrazolo[4,3-b]pyridine]	0.203 µM	–
Cn1cc(-c2ccc3[nH]nc(-c4nc5c(-c6ccc7c(c6)OCO7)nccc5[nH]4)c3n2)c(CO)n1 [Compound 1151, (4-(3-(4-(Benzo[d][1,3]dioxol-5-yl)-1H-imidazo[4,5-c]pyridin-2-yl)-1H-pyrazolo [4,3-b]pyridin-5-yl)-1-methyl-1H-pyrazol-3-yl)methanol]	> 10 µM	0%
COc1cccc(-c2nccc3[nH]c(-c4n[nH]c5ccc(-c6cn[nH]c6)nc45)nc23)c1 [Compound 1020, 3-(4-(3-Methoxyphenyl)-1H-imidazo[4,5-c]pyridin-2-yl)-5-(1H-pyrazol-4-yl)-1H-pyrazolo[4,3-b]pyridine]	> 10 µM	0%
c1ccc(CNCc2cncc(-c3ccc4[nH]nc(-c5nc6c(-c7ccsc7)nccc6[nH]5)c4n3)c2)cc1 [Compound 304, N-Benzyl-1-(5-(3-(4-(thiophen-3-yl)-1H-imidazo[4,5-c]pyridin-2-yl)-1H-pyrazolo [4,3-b]pyridin-5-yl)pyridin-3-yl)methanamine]	> 10 µM	0%

Second part, led by results:

EC50	Structure (SMILES)	inhibition at 10 µM
> 10 µM	O=C(Nc1cncc(-c2ccc3[nH]nc(-c4nc5c(N6CCCCC6)nccc5[nH]4)c3n2)c1)C1CC1 [Compound 188, N-(5-(3-(4-(Piperidin-1-yl)-1H-imidazo[4,5-c]pyridin-2-yl)-1H-pyrazolo [4,3-b]pyridin-5-yl)pyridin-3-yl)cyclopropanecarboxamide]	15.9%
> 10 µM	O=C(Nc1cncc(-c2ccc3[nH]nc(-c4nc5cnccc5[nH]4)c3n2)c1)C1CCCCC1 [Compound 275, N-(5-(3-(1H-Imidazo[4,5-c]pyridin-2-yl)-1H-pyrazolo[4,3-b]pyridin-5-yl)pyridin-3-yl)cyclohexanecarboxamide]	31.5%
> 10 µM	O=C(Nc1cncc(-c2ccc3[nH]nc(-c4nc5c(-c6ccsc6)nccc5[nH]4)c3n2)c1)c1ccccc1 [Compound 291, N-(5-(3-(4-(Thiophen-3-yl)-1H-imidazo[4,5-c]pyridin-2-yl)-1H-pyrazolo [4,3-b]pyridin-5-yl)pyridin-3-yl)benzamide]	0%
> 10 µM	O=C(CC1CCNCC1)Nc1cncc(-c2ccc3[nH]nc(-c4nc5c(-c6ccsc6)nccc5[nH]4)c3n2)c1 [Compound 673, 2-(Piperidin-4-yl)-N-(5-(3-(4-(thiophen-3-yl)-1H-imidazo[4,5-c]pyridin-2-yl)-1H-pyrazolo[4,3-b]pyridin-5-yl)pyridin-3-yl)acetamide]	40.5%
> 10 µM	CN1CCN(c2nccc3[nH]c(-c4n[nH]c5ccc(-c6cncnc6)nc45)nc23)CC1 [Compound 251, 3-(4-(4-Methylpiperazin-1-yl)-1H-imidazo[4,5-c]pyridin-2-yl)-5-(pyrimidin-5-yl)-1H-pyrazolo[4,3-b]pyridine]	8.3%
> 10 µM	Fc1ccccc1-c1nccc2[nH]c(-c3n[nH]c4ccc(-c5cncc(CNCC6CCCC6)c5)nc34)nc12 [Compound 81, 1-Cyclopentyl-N-((5-(3-(4-(2-fluorophenyl)-1H-imidazo[4,5-c]pyridin-2-yl)-1H-pyrazolo[4,3-b]pyridin-5-yl)pyridin-3-yl)methyl)methanamine]	54.6%
